{"source": "patent US20240122933A1", "about": "“USE OF ISOQUINOLINE-1,5-DIAMINES FOR WOUND HEALING” (Lutris Pharma Ltd., priority 2021, published 2024)", "molecules": {"B1": {"name": "Becaplermin (protein, UniProt P01127 82-190, looked up)", "Platelet-derived growth …": "SLGSLTIAEPAMIAECKTRTEVFEISRRLIDRTNANFLVWPPCVEVQRCSGCCNNRNVQCRPTQVQLRPVQVRKIEIVRKKPIFKKATVTLEDHLACKCETVAAARPVT", "notes": "recombinant human platelet-derived growth factor, FDA-approved for promoting healing of diabetic foot ulcers"}}, "key": {"[1]": {"tested_on": "Mitogen-Activated Protein Kinase (MAPK or ERK)", "assay": "MAPK (ERK phosphorylation) activity screen of BRaf inhibitors of Formula (I) vs. reference C-1", "assay_type": "cell-based", "settings": "MAPK activity of compound relative to reference compound C-1", "text": "The BRaf inhibitors of this disclosure were screened for phosphorylation of ERK (MAPK).\n(§1) The chemical structures, synthetic schemes and the synthetic procedures for each of the compounds of Formula (I) of this disclosure, as well as their MAPK (ERK) and the phototoxicity studies of LUT-014 were detailed in Shelach N., U.S. Patent Application Publication No. U.S.2019389862, which is incorporated herein in its entirety."}, "[2]": {"assay": "Phototoxicity: Photo-Irritation Factor (PIF) or Mean Photo Effect (MPE)", "assay_type": "cell-based", "method": "The level of phototoxicity was determined by measuring a Photo-Irritation Factor (PIF) or a Mean Photo Effect (MPE) of one of the compounds of Formula (I), namely LUT-014 (R=3-(trifluoromethoxy)phenyl).\nas §1"}, "wound": {"tested_on": "wound", "settings": "given alone; cited from earlier work"}}, "data": [{"molecule": "Cc1ccc2c(Nc3cc(C(C)(C)C)nn3C)nccc2c1Nc1ncccc1-c1ncnc2nc[nH]c12", "note": "[LUT-013]", "values": [{"measurement": "LUT/C1 MAPK Ratios", "setting": "[1]", "value": 3.4}]}, {"molecule": "Cc1ccc2c(Nc3cccc(OC(F)(F)F)c3)nccc2c1Nc1ncccc1-c1ncnc2[nH]cnc12", "note": "[LUT-014]", "values": [{"measurement": "LUT/C1 MAPK Ratios", "setting": "[1]", "value": 2.9}, {"measurement": "Photo-Irritation Factor (PIF)", "setting": "[2]", "value": "less than 2"}, {"measurement": "phototoxicity", "setting": "[2]", "value": "low phototoxicity"}]}, {"molecule": "Cc1ccc2c(Nc3ccc(Cl)c(C(F)(F)F)c3)nccc2c1Nc1ncccc1-c1ncnc2nc[nH]c12", "note": "[LUT-017]", "values": [{"measurement": "LUT/C1 MAPK Ratios", "setting": "[1]", "value": 3.5}]}, {"molecule": "Cc1ccc2c(Nc3ccc(I)cc3F)nccc2c1Nc1ncccc1-c1ncnc2nc[nH]c12", "note": "[LUT-016]", "values": [{"measurement": "LUT/C1 MAPK Ratios", "setting": "[1]", "value": 2.0}]}, {"molecule": "Cc1ccc2c(Nc3cccc(S(N)(=O)=O)c3)nccc2c1Nc1ncccc1-c1ncnc2[nH]cnc12", "note": "[LUT-020]", "values": [{"measurement": "LUT/C1 MAPK Ratios", "setting": "[1]", "value": 1.0}]}, {"molecule": "C#Cc1cccc(Nc2nccc3c(Nc4ncccc4-c4ncnc5nc[nH]c45)c(C)ccc23)c1", "note": "[LUT-012]", "values": [{"measurement": "LUT/C1 MAPK Ratios", "setting": "[1]", "value": 0.7}]}, {"molecule": "Cc1ccc2c(Nc3ccc(F)c(Cl)c3)nccc2c1Nc1ncccc1-c1ncnc2[nH]cnc12", "note": "[LUT-015]", "values": [{"measurement": "LUT/C1 MAPK Ratios", "setting": "[1]", "value": 2.1}]}, {"molecule": "B1", "values": [{"measurement": "effect in promoting wound healing", "setting": "wound", "value": "only a modest beneficial effect"}]}]}
